Source: US20190241569A1, “3-(ARYL OR HETEROARYL) METHYLENEINDOLIN-2-ONE DERIVATIVES AS INHIBITORS OF CANCER STEM CELL PATHWAY KINASES FOR THE TREATMENT OF CANCER” (Boston Biomedical, Inc., priority 2013, published 2019)
Like-named read-outs stand apart in the source and are kept apart here.

Key:
Format in all cases: cell-based
A549 = assay: Bulk cancer cells, Cell Titer-Glo 72 hours (Test Example 2); conditions: Homo sapiens
Experimental: (§1) Tubes of 3× drug (60 uM in 500 uL complete media) were prepared from 5 mM stock solutions in DMSO. […] To treat cells, 50 uL of drug from the dilution plate was removed and added to the cell plates. […] Cells were harvested 72 hours after drug addition using Cell Titer-Glo (Promega) and luminescence measured on a plate reader.

ACHN = assay: as above; conditions: Homo sapiens, ACHN, 72 h
Experimental: as §1

FaDu = assay: as above; conditions: Homo sapiens
Experimental: as §1

FaDu CSC = assay: Cancer stem cells, Cell Titer-Glo 72 hours (Test Example 3); conditions: Homo sapiens, FaDu, 72 h
A549 CSC = assay: as above; conditions: Homo sapiens
ACHN CSC = assay: as above; conditions: Homo sapiens, ACHN, 72 h
p-AMPK Thr172 = assay: Kinase inhibition, Western blot in HeLa cells (Test Example 5); conditions: Homo sapiens, 6 hours, DMSO = 100, read-out: p-AMPK Relative Intensity (%)
Experimental: (§2) HeLa cells were treated with 5 uM of the indicated compound for 6 hours. Following compound incubation, cells were washed twice with ice-cold PBS and lysed in lysis buffer (50 mM HEPES, pH 7.5, 1% Nonidet P40, 150 mM NaCl, 1 mM EDTA, 1× protease inhibitor cocktail (Promega)). 30 micrograms of soluble protein was separated by SDS-PAGE and transferred to PVDF membranes. Primary antibodies against p-AMPK Thr172, p-RPS6 Ser235/236, p-RPS6 Ser240/244, and Tubulin (Cell Signaling Technology) were used. The antigen-antibody complexes were visualized by enhanced chemiluminescence (BioRad). The results are shown below in Tables 17A-17E.

p-RPS6 Ser235/236 = assay: as above; conditions: Homo sapiens, 6 hours, DMSO = 100, read-out: p-RPS6 Ser235/236 Relative Intensity (%)
Experimental: as §2

p-RPS6 Ser240/244 = assay: as above; conditions: Homo sapiens, 6 hours, DMSO = 100, read-out: p-RPS6 Ser240/244 Relative Intensity (%)
Experimental: as §2

IC50 (A549) [µM]	IC50 (ACHN) [µM]	IC50 (FaDu) [µM]	IC50 (FaDu CSC) [µM]	IC50 (A549 CSC) [µM]	IC50 (ACHN CSC) [µM]	SMILES	activity at 5 µM (p-AMPK Thr172; 5 uM compound, Western blot) [%]	activity at 5 µM (p-RPS6 Ser235/236; 5 uM compound, Western blot) [%]	activity at 5 µM (p-RPS6 Ser240/244; 5 uM compound, Western blot) [%]	activity at 5 µM (p-AMPK Thr172; 5 uM) [%]	activity at 5 µM (p-RPS6 Ser235/236; 5 uM) [%]	activity at 5 µM (p-RPS6 Ser240/244; 5 uM) [%]
13.1	19.8	19.6	12.2	30.3	16.2	Cc1cc(C)c(/C=C2\C(=O)Nc3cccc(-c4ccncc4)c32)[nH]1 [Example 272]	75	50	47	–	–	–
2.91	3	2.77	2.06	3.9	1.86	CCN(CC)CCNC(=O)c1c(C)[nH]c(/C=C2\C(=O)Nc3c2cccc3-c2ccc3cc[nH]c3c2)c1C [Example 285]	39	29	44	–	–	–
0.7	0.52	0.69	0.22	2.48	–	COC(=O)c1c(C)[nH]c(/C=C2\C(=O)Nc3ccc(-c4csc(C5CCNCC5)n4)cc32)c1C [Example 144]	–	–	–	79	70	83
1.4	1.12	2.55	2.96	3	0.26	Cc1cc(C)c(/C=C2\C(=O)Nc3ccc(-c4ccc5cn[nH]c(=O)c5c4)cc32)[nH]1 [Example 240]	–	–	–	39	1	24
1.43	1.52	1.73	0.17	2.47	0.4	Cc1[nH]c(/C=C2\C(=O)Nc3ccc(-c4csc(-c5ccccc5)n4)nc32)c(C)c1C(=O)NCCN1CCCC1 [Example 119]	–	–	–	41	13	51
3.06	1.38	0.7	1.85	6.99	0.5	CCN(CC)CCNC(=O)c1c(C)[nH]c(/C=C2\C(=O)Nc3ccc(-c4csc(-c5ccc(O)cc5)n4)cc32)c1C [Example 126]	–	–	–	47	79	88
1.34	1.64	1.58	0.48	1.7	0.05	Cc1cc(C)c(/C=C2\C(=O)Nc3ccc(-c4csc(C5CCCNC5)n4)cc32)[nH]1 (centres unmarked) [Example 140]	–	–	–	69	6	34
6.85	6.39	6.74	4.41	12.6	4.99	CCN(CC)CCNC(=O)c1c(C)[nH]c(/C=C2\C(=O)Nc3c2cccc3-c2ccncc2)c1C [Example 284]	56	60	65	–	–	–
17.7	21.9	20.8	–	34.7	17.5	COc1ncc(-c2cccc3c2NC(=O)/C3=C\c2[nH]c(C)cc2C)cn1 [Example 275]	96	57	54	–	–	–
26.3	11.6	4.74	1.03	1.22	0.39	Cc1[nH]c(/C=C2\C(=O)Nc3cc(-c4csc(-c5ccccc5)n4)ccc32)c(C)c1C(=O)N1CCN(C)CC1 [Example 8]	–	–	–	150	33	73
1.74	1.37	1.37	0.11	0.62	0.97	CCN(CC)CCNC(=O)c1c(C)[nH]c(/C=C2\C(=O)Nc3ccc(-c4csc(-c5ccccc5)n4)nc32)c1C [Example 118]	–	–	–	35	5	42
–	–	–	1.6	–	0.5	Cc1nc(-c2ccccc2)oc1-c1ccc2c(c1)NC(=O)/C2=C\c1[nH]c(C)c(C(=O)N2CCN(C)CC2)c1C [Example 38]	–	–	–	103	2	21
5.41	15.2	5.41	2.99	4.19	0.5	Cc1[nH]c(/C=C2\C(=O)Nc3c2cccc3-c2csc(-c3ccccc3)n2)c(C)c1C(=O)N1CCN(C)CC1 [Example 10]	–	–	–	122	2	32
21.5	16.4	36.3	6.73	27.5	10.9	CCN(CC)CCNC(=O)c1c(C)[nH]c(/C=C2\C(=O)Nc3c2cccc3-c2cncnc2)c1C [Example 282]	60	71	72	–	–	–
4.74	1.64	1.18	0.27	4.28	–	CCN(CC)CCNC(=O)c1c(C)[nH]c(/C=C2\C(=O)Nc3ccc(-c4nc(-c5ccccc5)cs4)cc32)c1C [Example 51, (Z)-N-(2-(diethylamino)ethyl)-2,4-dimethyl-5-((2-oxo-5-(4-phenylthiazol-2-yl)indolin-3-ylidene)methyl)-1H-pyrrole-3-carboxamide]	–	–	–	12	21	64
0.84	1.31	2.82	4.31	3.9	1.06	CCN(CC)CCNC(=O)c1c(C)[nH]c(/C=C2\C(=O)Nc3ccc(-c4cccnc4)cc32)c1C [Example 210]	–	–	–	8	1	31
21.2	16	26.4	–	32	32	Cc1cncc(-c2cccc3c2NC(=O)/C3=C\c2[nH]c(C)cc2C)c1 [Example 280]	103	74	75	–	–	–
2.02	5.38	2.72	4.81	3.79	0.65	CCN(CC)CCNC(=O)c1c(C)[nH]c(/C=C2\C(=O)Nc3ccc(-c4ccc(-c5ccccc5)cn4)cc32)c1C [Example 197]	–	–	–	118	61	82
24.4	28.3	28.4	–	43.4	–	COc1ccc(-c2cccc3c2NC(=O)/C3=C\c2[nH]c(C)cc2C)cn1 [Example 274]	91	63	59	–	–	–
7.49	2.97	3.55	8.09	–	1.65	CCN(CC)CCNC(=O)c1c(C)[nH]c(/C=C2\C(=O)Nc3cc(-c4oc(-c5ccccc5)nc4C)ccc32)c1C [Example 37]	–	–	–	151	4	43
25.2	26.9	28.1	–	–	–	Cc1cc(C)c(/C=C2\C(=O)Nc3c2cccc3-c2cncnc2)[nH]1 [Example 276]	113	51	50	–	–	–
16.6	20.4	16.4	–	20.2	18.9	Cc1cc(C)c(/C=C2\C(=O)Nc3cccc(-c4ccc5cc[nH]c5c4)c32)[nH]1 [Example 273]	27	36	35	–	–	–

SMILES	IC50 (A549) [µM]	IC50 (ACHN) [µM]	IC50 (FaDu) [µM]	IC50 (FaDu CSC) [µM]	IC50 (A549 CSC) [µM]	IC50 (ACHN CSC) [µM]	activity at 5 µM (p-AMPK Thr172; 5 uM compound, Western blot) [%]	activity at 5 µM (p-RPS6 Ser235/236; 5 uM compound, Western blot) [%]	activity at 5 µM (p-RPS6 Ser240/244; 5 uM compound, Western blot) [%]	activity at 5 µM (p-AMPK Thr172; 5 uM) [%]	activity at 5 µM (p-RPS6 Ser235/236; 5 uM) [%]	activity at 5 µM (p-RPS6 Ser240/244; 5 uM) [%]
Cc1[nH]c(/C=C2\C(=O)Nc3cccc(-c4ccc(-c5ccccc5)cc4)c32)c(C)c1C(=O)N1CCN(C)CC1 [Example 110]	21.5	14.9	7.56	1.21	5.76	–	–	–	–	105	2	36
